For orientation: IC50 means the concentration that gives 50% inhibition. The MIC is the lowest concentration that inhibits growth of the organism. By Ki is commonly meant the equilibrium dissociation constant of an inhibitor or competing ligand from its target.

The test system of experiment [1] is S. pneumoniae. Kind of experiment: Interaction with vancomycin-provoked cell lysis. Type of experiment: cell-based, Streptococcus pneumoniae. The following applies: O.D. changes with vancomycin in presence of inhibitor. Here is the method:
(§1) Figure 3 Effect of drugs on the autolytic process. (A) Percent changes in O.D. were measured in cultures of S. pneumoniae exposed to various concentrations of drugs expressed as multiples of MIC. Percent changes were calculated by comparing initial and final O.D. values. (B) O.D. changes in cells treated with vancomycin (VAN) in the presence and absence of HC-3 (HC3), MN58b (MN), and RSM-932A (RSM). (C) Detergent induced lysis of cells grown to saturation in the presence of 0.5 MIC MN58b and RSM-932A. (D) Phosphate induced lysis of cells grown to saturation in the presence of 0.5 MIC MN58b and RSM-932A.
Autolysis is a process of cell lysis and death that is mediated by LTAs via choline binding autolysins[19] such as LytA. […] In light of the non-specificity observed with HC-3 (being able to interfere with both ChoKs and the autolytic process), it seemed logical to check the specificity of MN58b and RSM-932A for sChoK inhibition. The interaction of MN58b, RSM-932A, and HC-3 with bacteriolytic antibiotic vancomycin was determined (Fig. 3B). […] The non-specificity of HC-3 may help to explain its weakness against sChoK.

For experiment [2], the target named is T1, sChoK (Streptococcus pneumoniae, UniProt Q8DPI4). The arrangement: method as in doi:10.30721/fsab2018.v1.i2.40. The following applies: previously reported; read-out: IC50 against sChoK; cited from earlier work.
T1 sequence (Q8DPI4 entry or part of it): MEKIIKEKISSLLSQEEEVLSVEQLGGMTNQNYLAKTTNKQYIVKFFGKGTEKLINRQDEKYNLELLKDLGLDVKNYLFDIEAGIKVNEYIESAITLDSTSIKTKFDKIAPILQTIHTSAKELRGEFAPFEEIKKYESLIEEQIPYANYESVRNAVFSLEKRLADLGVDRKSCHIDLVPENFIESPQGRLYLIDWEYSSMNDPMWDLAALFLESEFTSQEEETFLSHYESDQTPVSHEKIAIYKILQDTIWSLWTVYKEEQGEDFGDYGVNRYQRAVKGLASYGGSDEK
Experiment [3] concerns S. pneumoniae R6 strain. The arrangement: method as in PMID 28946671. The settings on record: previously reported; cited from earlier work.
Experiment [4] has as its target T1, sChoK. Kind of experiment: Colorimetric choline kinase assay with S. pneumoniae extracts. Type of experiment: biochemical. The settings on record: choline consumption. From the text: (§2) When using cell extracts such as BL21 (DE3) extracts containing sChoK or S. pneumoniae extracts as the enzyme source, a colorimetric method was used to quantify Cho consumption and PCho production as described previously.
In light of the inconsistent results between sChoK inhibition by MN58b and RSM-932A which are both known choline kinase inhibitors, we repeated the colorimetric experiments using S. pneumoniae extracts as the source of sChoK, The goal of the experiment was to determine whether or not differences in sChoK inhibition could be detected in a more native environment than that provided by extracts of E. coli overexpressing sChoK or purified sChoK. […] This agonism was confirmed by mass spectrometry (data not shown) and was also found to be ATP dependent, thereby supporting the inference that RSM-932A was still affecting sChoK activity, although in the opposite direction.

The target of experiment [5] is T1, sChoK. Kind of experiment: IC50 by colorimetric method with BL21 (DE3) extracts expressing recombinant sChoK. It is filed as biochemical. Here is the method:
as §2
The IC50s of each drug against sChoK were measured using two methods: the indirect ldh/pk method that relied on recombinant sChoK and which indirectly measured consumption of ATP[14] and a previously reported colorimetric method that relied on BL21 (DE3) extracts expressing recombinant sChoK, which directly measured the consumption of choline and the production of phosphocholine. Inhibitors were similarly effective in a complex cell extract and in a simplified system relying on a purified enzyme. […] RSM-932A was stronger that MN58b by 1–2 orders of magnitude.

Experiment [6] deals with S. pneumoniae. Kind of experiment: Detergent and phosphate induced lysis of cells grown with 0.5 MIC inhibitor. Type of experiment: cell-based, Streptococcus pneumoniae. The following applies: cells grown in presence of 0.5 MIC. Here is the method:
as §1
Given the observation that MN58b and RSM-932A were sChoK inhibitors, our expectation was that cells treated with these inhibitors would show a decrease in overall LTA content because a decrease in phosphocholine availability would reduce the overall production of LTA residues and, by extension, LTA molecules. A reduction in LTA content, in turn, should help desensitize cells to autolytic induction. Although autolysin proteins would be released, they would not be able to dock on the cell surface because the autolysin choline binding domains would have fewer choline containing LTA molecules with which to interact. Both LTA reduction and cell […] had previously been observed with HC-3[17].

The subject of experiment [7] is S. pneumoniae. Kind of experiment: Percent O.D. changes of cultures exposed to multiples of MIC (bacteriostatic/bacteriolytic). Type of experiment: cell-based, Streptococcus pneumoniae. The settings on record: cultures grown to O.D. 0.500, concentrations as multiples of MIC. Here is the method:
as §1

Experiment [8] concerns the target T1, sChoK. Kind of experiment: Substrate-inhibitor competition (competitivity) by LDH/PK. Type of experiment: biochemical. Here is the method:
The mechanism of action of the inhibitors with respect to each substrate was determined using a previously described method[13],[14]. Briefly, using the IC50 of each inhibitor determined at the Km of choline, the concentration of one substrate was kept constant, and initial velocities were measured while varying the second substrate in the presence and absence of the inhibitor. The percentage of inhibition (%I) was determined by dividing each initial velocity in the presence of the inhibitor with its corresponding initial velocity in the absence of compound. %I was plotted against concentration and fitted using a two-parameter-fit nonlinear regression algorithm of GnuPlot v 4.3 into Eq. (2).2 %I=100×(([I]/Ki+[S][I]/αKsKi/(1+[S]/Ks+[I]/Ki+[S][I]/αKsKi)) where [S] is the concentration of the varied substrate, [I] is the concentration of inhibitor, Ks is the dissociation constant of the substrate (assumed to be equal to the Km), Ki is the dissociation constant of the inhibitor, and α is a numerical constant that measures the effect the substrate has on the binding of the inhibitor and vice versa.
A mechanistic analysis was performed for each inhibitor by performing steady-state enzymatic reactions with sChoK in which one substrate was varied while the other substrate was fixed both in assays with and without inhibitor fixed at a concentration equal to its IC50. sChoK inhibition was calculated as a percentage (%I) calculated by dividing the initial velocity at each substrate concentration with inhibitor by counterpart initial velocities in the absence of inhibitor. %I values were plotted against substrate concentration. The resulting data was fitting to an Eq. (2) and Ki and α values calculated.

The test system of the next experiment is S. pneumoniae R6 cells. Kind of experiment: Western blot detection of lipoteichoic acid (LTA). The settings on record: cells grown to saturation with 0.5 MIC. Type of experiment: cell-based, Streptococcus pneumoniae. Here is the method:
R6 cells were cultured to saturation in either BHI-cat alone or BHI-cat 0.5 MIC of MN58b or RSM-932A. One milliliter (1 mL) of cell samples was centrifuged at 3,000g, sonicated 3 × 2 min on ices. Western blots were performed as described[3] while total protein on the membrane was measured by fluorescence according to Quickstain instructions.
In order to quantify LTA production, western blots were performed on extracts of cells grown to saturation in the presence of 0.5 MIC MN58b or RSM-932A. LTA band patterns clearly differed between treatments. […] It is important to note that each size band in an LTA western blot differs from the lower one by a single LTA residue (Fig. 4A)[19].
(In western blotting, separated proteins are transferred to a membrane and probed.)

Experiment [9] deals with S. pneumoniae R6 strain. Kind of experiment: Minimum inhibitory concentration (MIC) and minimum lethal concentration (MLC) in culture. It is filed as cell-based, Streptococcus pneumoniae. The settings on record: for MLC: S. pneumoniae R6, 99.9% of cells killed by CFU counts; for MIC: Streptococcus pneumoniae, R6STRAIN, S. pneumoniae R6, BHI-CAT, O.D.610 of 0 at end of culture. Here is the method: Seven μL of a glycerol stock of the S. pneumoniae R6 strain was used to inoculate 7 mL of Brain Heart Infusion broth (BHI, Accumedia, Sydney, Australia) supplemented with 5 units/mL catalase (BHI-CAT). This starter culture was incubated at 37 °C in a water bath until an optical density at 610 nm (OD610) […]. Forty μL of this starter culture was used to inoculate 40 mL of BHI-CAT media with or without varying concentrations of inhibitor.
MIC was determined as the concentration inhibitor at which an O.D.610 of 0 was measured at the end of culture time. MLC was defined as the concentration at which 99.9% of cells were killed at the end of culturing time as determined by CFU counts using Meuller–Hinton plates.

The target of experiment [10] is T1, sChoK. Kind of experiment: IC50 by LDH/PK with purified recombinant sChoK. Type of experiment: biochemical. The protocol:
Purified sChoK was used in these assays. Steady-state enzymatic assays were monitored with the pyruvate kinase/lactate dehydrogenase (PK/LDH) reaction. The steady-state rate of ADP formation was calculated using an extinction coefficient of 6,200 M^−1 cm^−1 to determine linear reductions in NADH concentrations that were observed by absorbance at 340 nm. Measurements were carried out at 25 °C in a UV-Star 96-well plate (Greiner) placed in a Synergy HT microplate reader (Biotek). Each well contained 200 µL of a solution containing 22 nM sChoK enzyme, 100 mM Tris pH 8, 10 mM MgCl2, 150 mM NaCl, 150 mM KCl, […], 0.66 mM phosphoenolpyruvate, 20 units of LDH, and 10 units of PK, choline. ATP. […] The kcat was calculated by dividing the Vmax by the enzyme concentration.
Using the conditions described above, the concentration of choline was set to the Km and increasing amounts of inhibitor were tested. Percent inhibition was determined. The IC50 was determined as the concentration of inhibitor required to reach 50% inhibition.

Where two headings read alike, the source gives them in different places.

As to `C[N+]1(C)CCOC(O)(c2ccc(-c3ccc(C4(O)C[N+](C)(C)CCO4)cc3)cc2)C1` (centres unmarked) [HC-3, Hemicholinium-3], in the experiment on S. pneumoniae [1], the “Effect on cell lysis provoked by vancomycin” value (“Effect on cell lysis provoked” below) is “prevented cell lysis provoked by vancomycin”. Further, on sChoK [2], the IC50 is 2700 µM. The MIC with S. pneumoniae R6 strain [3] is recorded as 5,400 µM.
With `CN(C)c1cc[n+](Cc2ccc(CCCCc3ccc(C[n+]4ccc(N(C)C)cc4)cc3)cc2)cc1` [MN58b, 1,4-[4–4′-Bis-{[4-(dimethylamine)pyridinium-1-yl]methyl}diphenyl]butane dibromide], in the experiment with S. pneumoniae [1], the “Effect on cell lysis provoked” value is “minimal to no effect”. For the same molecule, at sChoK [4], the “Effect on choline kinase activity in S. pneumoniae extracts” value is “continued to function as an inhibitor of choline kinase activity”. Besides, the IC50 at sChoK [5] came to 225 µM. The “Sensitivity of cells to induced autolysis” value with S. pneumoniae [6] is on record as “primed the cells to be autolyzed”. The “Bacteriostatic or bacteriolytic action” value with S. pneumoniae [7] is given as “bacteriostatic up to a concentration of 50 × MIC after which they become bacteriolytic”. At sChoK [8] ((A) inhibitor vs ATP), the Kminh/Kmfree was found to be 3.48, the “Mechanism of Inhibition” value is on record as “Mixed”, the Vmaxinh/Vmaxfree came to 0.76 and the α is 6.0 ± 2.2. At sChoK [8] ((A) inhibitor vs ATP), this molecule came in with a Ki of 182 ± 28.1 µM. For the same molecule, at sChoK [8] ((B) inhibitor vs choline), the Kminh/Kmfree stood at 2.3, the “Mechanism of Inhibition” value is given as “Mixed”, the Vmaxinh/Vmaxfree turned out to be 0.69 and affinity was put at a Ki of 124 ± 19.2 µM. For the same molecule, in the experiment with S. pneumoniae R6 cells, the LTA size pattern entry is given as “marked increase in the smaller sizes of LTA” and the “Total LTA production” value was “marked increase in total LTA production”. In the experiment with S. pneumoniae R6 strain [9], the MLC is 20 µM and the lowest concentration to inhibit growth (MIC) was 10 µM. Further, the IC50 at sChoK [10] turned out to be 645 µM.
`CN(c1ccc(Cl)cc1)c1cc[n+](Cc2ccc(-c3ccc(C[n+]4ccc(N(C)c5ccc(Cl)cc5)c5ccccc54)cc3)cc2)c2ccccc12.[Br-].[Br-]` [RSM-932A, 1,1′-([1,1′-biphenyl]-4,4′-diylbis(methylene))bis(4-((4-chlorophenyl)(methyl)amino)quinolin-1-ium) bromide]: in the experiment with S. pneumoniae [1], the “Effect on cell lysis provoked” value is on record as “minimal to no effect”. In addition, the “Effect on choline kinase activity in S. pneumoniae extracts” value on sChoK [4] was “somewhat inhibitory at lower concentrations, it functioned as an agonist of choline kinase activity at higher concentrations”. Besides, on sChoK [5], the IC50 came out at 0.5 µM. Besides, in the experiment with S. pneumoniae [6], the “Sensitivity of cells to induced autolysis” value is recorded as “equally sensitive to autolysis as untreated controls”. In the experiment on S. pneumoniae [7], the “Bacteriostatic or bacteriolytic action” value is “bacteriostatic up to a concentration of 50 × MIC after which they become bacteriolytic”. Moreover, on sChoK [8] ((A) inhibitor vs ATP), the Kminh/Kmfree worked out at 0.92, the “Mechanism of Inhibition” value is “Noncompetitive”, the Vmaxinh/Vmaxfree came to 0.61 and the α was found to be 1.1 ± 0.17. In addition, the affinity on sChoK [8] ((A) inhibitor vs ATP), expressed as Ki, was 35.8 ± 3.2 µM. On sChoK [8] ((B) inhibitor vs choline), the “Mechanism of Inhibition” value is recorded as “Mixed”, the Vmaxinh/Vmaxfree amounted to 0.76, the α was determined as 8.1 ± 1.8 and the affinity corresponds to a Ki of 10.6 ± 0.9 µM. Further, in the experiment on S. pneumoniae R6 cells, the LTA size pattern entry is “larger size polymers were favored” and the “Total LTA production” value was “overall production remained unchanged”. Also, in the experiment with S. pneumoniae R6 strain [9], the MLC came to 1.6 µM and the MIC amounted to 0.4 µM. The IC50 on sChoK [10] is 22 µM.

These data come from publication PMC7508948, “Identification and validation of novel and more effective choline kinase inhibitors against Streptococcus pneumoniae” (Scientific Reports, 2020).
